Values of other authors in patent US8207231B2, “Hepatitis A virucide” (Ecolab USA Inc., priority 1999, dated 2012).

Tested on: hepatitis A
Conditions: 1 percent and 2 percent concentration

SMILES: Cc1ccc(S(=O)(=O)[N-]Cl)cc1.[Na+] [chloramine T]
- meets the requirements for activity against hepatitis A: meets the requirements for activity against hepatitis A
